Test results from PubChem BioAssay AID228 (DTP/NCI, 2004).
Values joined by “and” are separate entries in the source; they are usually repeats but may differ in a detail not shown here. Identical values can stand only once. Results filed as inconclusive are left out. Starred links: 1 amine or outer side, 2 acyl side, 3 side chain; linkers in the order of their positions; H or OH if unused. Positions of bridges follow the written chain, without caps; N, C: chain ends. Non-standard residues stand in square brackets, D forms with d. Residues, ends and D or L forms follow the SMILES beside them. *: point of attachment. X1 = CC(C)C(C)C(C(=O)[*:2])N(C)[*:1]; Picolinoyl(3-OH) = O=C(c1ncccc1O)*; NMePhg = CN[CH](C(=O)O)c1ccccc1; Hyp = O=C(O)[CH]1C[CH](O)CN1; Sar = CNCC(=O)O

Tested on: BDF1 mice, Friend leukemia sc, tumor weight T/C
Test: NCI In Vivo Anticancer Drug Screen. Data for tumor model Friend Virus Leukemia (Solid) (subcutaneous) in B6D2F1 (BDF1) mice
Settings: endpoint: mean tumor weight, schedule: Q01DX011 (ip), higher = larger tumour
Protocol: The antitumor activity of compounds was measured in mice bearing transplantable tumors. Survival or tumor size were measured and the results are expressed as the measurement made in the treated group (T) divided by the measurement made in the vehicle treated control group (C). The tumor model used in this assay is Friend Virus Leukemia (Solid) (subcutaneous) in B6D2F1 (BDF1) mice

[1] = dose: 25.0 mg/kg/injection, vehicle: carboxymethylcellulose (CMC)
[2] = dose: 50.0 mg/kg/injection, vehicle: carboxymethylcellulose (CMC)
[3] = dose: 250.0 mg/kg/injection, vehicle: saline
[4] = dose: 100.0 mg/kg/injection, vehicle: carboxymethylcellulose (CMC)
[5] = dose: 200.0 mg/kg/injection, vehicle: carboxymethylcellulose (CMC)
[6] = dose: 250.0 mg/kg/injection, vehicle: carboxymethylcellulose (CMC)

SMILES: O=C(O)CC(O)(CC(=O)O)C(=O)O.[Ga]
- T/C [1]: 108 % of control
- T/C [2]: 104 % of control

SMILES: CCC[CH2][Sn]([CH2]CCC)([CH2]CCC)[O]C(=O)CC[S][Sn]([CH2]CCC)([CH2]CCC)[CH2]CCC
- T/C (dose: 2.0 mg/kg/injection, vehicle: carboxymethylcellulose (CMC)): 108 % of control
- T/C (dose: 4.0 mg/kg/injection, vehicle: carboxymethylcellulose (CMC)): 82 % of control

SMILES: CCOC(=O)NP(=O)(N1CC1(C)C)N1CC1(C)C (configuration not stated)
- T/C (dose: 125.0 mg/kg/injection, vehicle: saline): 73 % of control
- T/C (dose: 187.0 mg/kg/injection, vehicle: saline): 101 % of control
- T/C [3]: 65 % of control
- T/C (dose: 375.0 mg/kg/injection, vehicle: saline): 24 % of control

SMILES: Oc1ccc2ccccc2c1N=Nc1ccccc1
- T/C [1]: 90 % of control
- T/C [2]: 56 % of control
- T/C [4]: 41 % of control and 47 % of control
- T/C [5]: 65 % of control and 47 % of control

SMILES: Cc1ncc(CO)c(C)c1O
- T/C (dose: 22.75 mg/kg/injection, vehicle: carboxymethylcellulose (CMC)): 54 % of control
- T/C (dose: 45.5 mg/kg/injection, vehicle: carboxymethylcellulose (CMC)): 111 % of control
- T/C (dose: 121.0 mg/kg/injection, vehicle: carboxymethylcellulose (CMC)): 84 % of control and 98 % of control
- T/C (dose: 126.0 mg/kg/injection, vehicle: carboxymethylcellulose (CMC)): 112 % of control

SMILES: [N-]=[N+]=[N-]
- T/C (dose: 1.06 mg/kg/injection, vehicle: carboxymethylcellulose (CMC)): 89 % of control
- T/C (dose: 2.12 mg/kg/injection, vehicle: carboxymethylcellulose (CMC)): 108 % of control
- T/C (dose: 4.25 mg/kg/injection, vehicle: carboxymethylcellulose (CMC)): 114 % of control
- T/C (dose: 8.5 mg/kg/injection, vehicle: carboxymethylcellulose (CMC)): 117 % of control

SMILES: C[C@]12CC[C@H](OC3OC(CO)C(O)C(O)C3O)C[C@H]1CC[C@@H]1[C@@H]2CC[C@]2(C)[C@@H](C3=CCOC3=O)CC[C@]12O (some centres not stated)
- T/C (dose: 0.1 mg/kg/injection, vehicle: carboxymethylcellulose (CMC)): 69 % of control

SMILES: CCNc1nncs1
- T/C (dose: 8.62 mg/kg/injection, vehicle: carboxymethylcellulose (CMC)): 122 % of control
- T/C (dose: 17.25 mg/kg/injection, vehicle: carboxymethylcellulose (CMC)): 107 % of control
- T/C (dose: 34.5 mg/kg/injection, vehicle: carboxymethylcellulose (CMC)): 193 % of control
- T/C (dose: 69.0 mg/kg/injection, vehicle: carboxymethylcellulose (CMC)): 112 % of control

SMILES: NNC(=O)NC(=O)NN
- T/C (dose: 9.62 mg/kg/injection, vehicle: carboxymethylcellulose (CMC)): 90 % of control
- T/C (dose: 19.25 mg/kg/injection, vehicle: carboxymethylcellulose (CMC)): 100 % of control
- T/C (dose: 77.0 mg/kg/injection, vehicle: carboxymethylcellulose (CMC)): 105 % of control

SMILES: CCC(C)C(NN)C(=O)O (configuration not stated)
- T/C (dose: 2.5 mg/kg/injection, vehicle: other): 84 % of control
- T/C (dose: 5.0 mg/kg/injection, vehicle: other): 104 % of control
- T/C (dose: 10.0 mg/kg/injection, vehicle: other): 81 % of control
- T/C (dose: 20.0 mg/kg/injection, vehicle: other): 89 % of control
- T/C (dose: 40.0 mg/kg/injection, vehicle: other): 83 % of control
- T/C (dose: 50.0 mg/kg/injection, vehicle: other): 21 % of control

SMILES: CCC1=C(c2cc(Cl)c3ccccc3c2OCC(=O)O)OC(CC)(C(=O)c2cc(Cl)c3ccccc3c2OCC(=O)O)CC1 (configuration not stated)
- T/C (dose: 30.0 mg/kg/injection, vehicle: carboxymethylcellulose (CMC)): 52 % of control
- T/C (dose: 60.0 mg/kg/injection, vehicle: carboxymethylcellulose (CMC)): 55 % of control
- T/C (dose: 120.0 mg/kg/injection, vehicle: carboxymethylcellulose (CMC)): 63 % of control
- T/C (dose: 240.0 mg/kg/injection, vehicle: carboxymethylcellulose (CMC)): 66 % of control

SMILES: Cn1cnc([N+](=O)[O-])c1Sc1nc(N)nc2c1ncn2C1OC(CO)C(O)C1O (configuration not stated)
- T/C (dose: 0.25 mg/kg/injection, vehicle: carboxymethylcellulose (CMC)): 73 % of control
- T/C (dose: 0.5 mg/kg/injection, vehicle: carboxymethylcellulose (CMC)): 61 % of control
- T/C (dose: 1.0 mg/kg/injection, vehicle: carboxymethylcellulose (CMC)): 31 % of control and 32 % of control
- T/C (dose: 3.0 mg/kg/injection, vehicle: carboxymethylcellulose (CMC)): 10 % of control and 24 % of control
- T/C (dose: 7.0 mg/kg/injection, vehicle: carboxymethylcellulose (CMC)): 5 % of control

SMILES: CNC=O
- T/C (dose: 12.5 mg/kg/injection, vehicle: carboxymethylcellulose (CMC)): 80 % of control
- T/C [1]: 57 % of control and 38 % of control
- T/C (dose: 41.62 mg/kg/injection, vehicle: carboxymethylcellulose (CMC)): 124 % of control
- T/C (dose: 42.0 mg/kg/injection, vehicle: carboxymethylcellulose (CMC)): 92 % of control
- T/C (dose: 43.0 mg/kg/injection, vehicle: carboxymethylcellulose (CMC)): 79 % of control
- T/C [2]: 43 % of control
- T/C (dose: 83.25 mg/kg/injection, vehicle: carboxymethylcellulose (CMC)): 92 % of control
- T/C (dose: 85.0 mg/kg/injection, vehicle: carboxymethylcellulose (CMC)): 91 % of control
- T/C (dose: 86.0 mg/kg/injection, vehicle: carboxymethylcellulose (CMC)): 109 % of control
- T/C [4]: 53 % of control
- T/C (dose: 176.5 mg/kg/injection, vehicle: carboxymethylcellulose (CMC)): 91 % of control
- T/C [5]: 39 % of control
- T/C [6]: 84 % of control
- T/C (dose: 275.0 mg/kg/injection, vehicle: carboxymethylcellulose (CMC)): 57 % of control
- T/C (dose: 343.0 mg/kg/injection, vehicle: carboxymethylcellulose (CMC)): 41 % of control

SMILES: CC(C)CCCCCCCCCCCCC(=O)NCC(=O)NC1C(O)C(O)C(Nc2ncnc3nc[nH]c23)OC1C(O)CO (configuration not stated)
- T/C (dose: 0.4 mg/kg/injection, vehicle: carboxymethylcellulose (CMC)): 93 % of control
- T/C (dose: 0.6 mg/kg/injection, vehicle: carboxymethylcellulose (CMC)): 83 % of control
- T/C (dose: 0.9 mg/kg/injection, vehicle: carboxymethylcellulose (CMC)): 52 % of control
- T/C (dose: 1.35 mg/kg/injection, vehicle: carboxymethylcellulose (CMC)): 50 % of control
- T/C (dose: 1.35 mg/kg/injection, vehicle: saline): 37 % of control

SMILES: Oc1cc(CN(CCCl)CCCl)c(O)cc1CN(CCCl)CCCl
- T/C (dose: 0.44 mg/kg/injection, vehicle: carboxymethylcellulose (CMC)): 63 % of control
- T/C (dose: 0.88 mg/kg/injection, vehicle: carboxymethylcellulose (CMC)): 86 % of control

SMILES: [I][Hg][CH2]C1COCC([CH2][Hg][I])O1.[I][Hg][CH2]C1COCC([CH2][Hg][I])O1 (configuration not stated)
- T/C (dose: 10.0 mg/kg/injection, vehicle: carboxymethylcellulose (CMC)): 75 % of control
- T/C (dose: 20.0 mg/kg/injection, vehicle: carboxymethylcellulose (CMC)): 56 % of control
- T/C (dose: 40.0 mg/kg/injection, vehicle: carboxymethylcellulose (CMC)): 77 % of control
- T/C (dose: 80.0 mg/kg/injection, vehicle: carboxymethylcellulose (CMC)): 45 % of control

SMILES: CC(=O)N(C)C
- T/C [3]: 113 % of control

SMILES: CC(C)CC1NC(=O)C(NC(=O)c2ncccc2O)C(C)OC(=O)C(c2ccccc2)N(C)C(=O)C(C)NC(=O)C(C(C)C(C)C)N(C)C(=O)CN(C)C(=O)C2CC(O)CN2C1=O (configuration not stated) ({Picolinoyl(3-OH)}-TL[Hyp][Sar][X1]A[NMePhg]; ester 1-C; configuration not given here)
- T/C [1]: 57 % of control
- T/C [2]: 49 % of control
- T/C [4]: 64 % of control
- T/C [5]: 39 % of control

SMILES: NC(C=O)C(O)C(O)C(O)CO (configuration not stated)
- T/C (dose: 125.0 mg/kg/injection, vehicle: carboxymethylcellulose (CMC)): 102 % of control
- T/C [6]: 168 % of control
- T/C (dose: 1000.0 mg/kg/injection, vehicle: carboxymethylcellulose (CMC)): 115 % of control
